# Laboratory results from patent US6469059B1, “Fungicidal composition and method for disease control of paddy-rice plants” (BASF Aktiengesellschaft, priority 1999, dated 2002).
# Like-named read-outs stand apart in the source and are kept apart here.
# Experiments:
# Assay type in all cases: in vivo
# [1] = test system: Helminthosporium leaf spot (Cochliobolus miyabeanus); assay: Preventive effect by application against Helminthosporium leaf spot (foliar spray); conditions: foliar spray before inoculation, six-leave-stage rice
# [2] = test system: Sheath blight (Rhizoctonia solani); assay: Preventive effect by paddy water application against Sheath blight; conditions: water-applied 7 days before inoculation
# Experimental: Preventive Effect by Paddy Water Application Against Sheath Blight (Rhizoctonia solani)
# By using pots of 1/8000 are, the compounds prepared according to the Formulations Examples which were diluted with water to a predetermined concentration were water-applied to ten-leave-stage rice plant (Kin-maze) cultivated under flooding. The treated pots were allowed to stand in a greenhouse for seven days, and the fungus nuclei of Sheath blight (Rhizoctonia solani) was inoculated at the root of the plant. Then, the plant was allowed to stand under humid conditions at 30° C. for one week, and then, the number of the disease lesion was determined to obtain the preventive index according to the criterion of Test Example 1.
# [3] = test system: Blast (Pyricularia oryzae); conditions: granules water-applied 7 days before inoculation
# [4] = test system: Blast (Pyricularia oryzae); conditions: sprayed one day after inoculation
# [5] = test system: Blast (Pyricularia oryzae); conditions: foliar spray before inoculation, rice plant (Kin-maze)
# [6] = test system: Sheath blight (Rhizoctonia solani); assay: Preventive effect by application against Sheath blight (foliar spray); conditions: foliar spray before inoculation, ten-leave-stage rice
# Experimental: Preventive Effect by Application Against Sheat Blight (Rhizoctonia solani)
# The wettable powders prepared according to the Formulation Examples which were diluted with water to a predetermined concentrations were sprayed to the stems and leaves of ten-leave-stage of rice plant (Kin-maze) cultivated in pots under flooding. After air-drying, the fungous nucleiof Sheath blight (Rhizoctonia solani) was inoculated at the root of the plant. After that, the plant was allowed to stand under humid conditions at 30° C. for one week, and then, the number of the disease lesion was determined to obtain the preventive index according to the criterion of Test Example 1.
smiles,measurement,setting,value
"CCCCC(O)(Cn1cncn1)c1ccc(Cl)cc1Cl (racemic) [Compound 10, (RS)-2-(2,4-dichlorophenyl)-1-(1H-1,2,4-triazol-1-yl)hexan-2-ol]",Preventive index,[1]; 10 ppm active ingredient,3 (Preventive value 60 to 84%)
same,Preventive index,[2]; 10 g/10a active ingredient,3 (Preventive value 60 to 84%)
"CC(C)Oc1cccc(NC(=O)c2ccccc2C(F)(F)F)c1 [Compound 1, α,α,α-trifluoro-3′-isopropoxy-O-toluanilide]",Preventive index,[3]; 200 g/10a active ingredient,0
same,Preventive index,[4]; 200 ppm active ingredient,0
same,Preventive index,[5]; 500 ppm active ingredient,0
same,Preventive index,[6]; 10 ppm active ingredient,3 (Preventive value 60 to 84%)
"Cc1ccccc1C(=O)Nc1cccc(OC(C)C)c1 [Compound 2, 3′-isopropoxy-2-methylbenzanilide]",Preventive index,[5]; 500 ppm active ingredient,0
same,Preventive index,[6]; 10 ppm active ingredient,2
"Cc1nc(C(F)(F)F)c(C(=O)Nc2c(Br)cc(OC(F)(F)F)cc2Br)s1 [Compound 3, N-(2,6-dibromo-4-trifluoromethoxyphenyl)-2-methyl-4-trifluoromethylthiazole-5-carboxamide]",Preventive index,[5]; 500 ppm active ingredient,0
same,Preventive index,[6]; 10 ppm active ingredient,3 (Preventive value 60 to 84%)
"Cc1nn(C)c(Cl)c1C(=O)Nc1cccc2c1COC2(C)C [Compound 4, 5-chloro-1,3-dimethyl-N-(1,1-dimethyl-2-oxa-4-indanyl)pyrazole-4-carboxamide]",Preventive index,[3]; 200 g/10a active ingredient,0
"OCC1=C[C@H](N[C@H]2C[C@H](CO)[C@@H](O[C@@H]3O[C@H](CO)[C@@H](O)[C@H](O)[C@H]3O)[C@H](O)[C@H]2O)[C@H](O)[C@@H](O)[C@@H]1O [Compound 5, validamycin]",Preventive index,[5]; 500 ppm active ingredient,0
same,Preventive index,[6]; 10 ppm active ingredient,3 (Preventive value 60 to 84%)
"O=C(Nc1ccccc1)N(Cc1ccc(Cl)cc1)C1CCCC1 [Compound 6, 1-(4-chlorobenzyl)-1-cyclopentyl-3-phenylurea]",Preventive index,[5]; 500 ppm active ingredient,0
same,Preventive index,[6]; 10 ppm active ingredient,3 (Preventive value 60 to 84%)
"Cc1c(Cl)cc(-c2ccc(=O)[nH]n2)cc1Cl [Compound 7, 6-(3,5-dichloro-4-methylphenyl)-3(2H)-pyridazinone]",Preventive index,[6]; 10 ppm active ingredient,2
"CC(C)NC(=O)N1CC(=O)N(c2cc(Cl)cc(Cl)c2)C1=O [Compound 8, 3-(3,5-dichlorophenyl)-N-isopropyl-2,4-dioxoimidazolidine-1-carboxamide]",Preventive index,[1]; 10 ppm active ingredient,3 (Preventive value 60 to 84%)
same,Preventive index,[2]; 10 g/10a active ingredient,3 (Preventive value 60 to 84%)
"CCCCC(C#N)(Cn1cncn1)c1ccc(Cl)cc1 (stereo not shown) [Compound 9, 2-p-chlorophenyl-2-(1H-1,2,4-triazol-1-ylmethyl)hexanenitrile]",Preventive index,[1]; 10 ppm active ingredient,3 (Preventive value 60 to 84%)
same,Preventive index,[2]; 10 g/10a active ingredient,3 (Preventive value 60 to 84%)
"C/C(=N/Nc1nc(C)cc(C)n1)c1ccccc1C [Compound 11, (Z)-2′-methylacetophenone 4,6-dimethylpyrimidin-2-ylhydrazone]",Preventive index,[1]; 10 ppm active ingredient,3 (Preventive value 60 to 84%)
same,Preventive index,[2]; 10 g/10a active ingredient,3 (Preventive value 60 to 84%)
"CC(=O)O.CC(=O)O.CC(=O)O.N=C(N)NCCCCCCCCNCCCCCCCCNC(=N)N [Compound 12, 1,1′-iminodi(octamethylene)diguanidinium triacetate]",Preventive index,[1]; 10 ppm active ingredient,3 (Preventive value 60 to 84%)
same,Preventive index,[2]; 10 g/10a active ingredient,3 (Preventive value 60 to 84%)
"CO/C=C(/C(=O)OC)c1ccccc1Oc1cc(Oc2ccccc2C#N)ncn1 [Compound 13, methyl (E)-2-{2-[6-(2-cyanophenoxy)pyrimidin-4-yloxy]phenyl}-3-methoxy-acrylate]",Preventive index,[3]; 10 g/10a active ingredient,3 (Preventive value 60 to 84%)
same,Preventive index,[6]; 10 ppm active ingredient,3 (Preventive value 60 to 84%)
same,Preventive index,[1]; 10 ppm active ingredient,3 (Preventive value 60 to 84%)
"CNC(=O)/C(=N/OC)c1ccccc1Oc1ccccc1 [Compound 14, 2-methoxyimino-N-methyl-2-(2-phenoxy)phenyl-acetamide]",Preventive index,[3]; 50 g/10a active ingredient,3 (Preventive value 60 to 84%)
same,Preventive index,[6]; 50 ppm active ingredient,3 (Preventive value 60 to 84%)
same,Preventive index,[1]; 50 ppm active ingredient,3 (Preventive value 60 to 84%)
"CCOP(=O)(Sc1ccccc1)Sc1ccccc1 [Compound 16, O-ethyl-S,S-diphenyldithiophosphate]",Preventive index,[5]; 50 ppm active ingredient,3 (Preventive value 60 to 84%)
"C[C@H]1O[C@H](O[C@H]2[C@H](O)[C@@H](O)[C@@H](O)[C@H](O)[C@@H]2O)[C@@H](N)C[C@@H]1NC(=N)C(=O)O [Compound 19, kasugamycin]",Preventive index,[4]; 20 ppm active ingredient,4 (Preventive value 85 to 94%)
"CC(NC(=O)C(C#N)C(C)(C)C)c1ccc(Cl)cc1Cl (stereo not shown) [Compound 21, N-[1-(2,4-dichlorophenyl)ethyl]-2-cyano-3,3-dimethylbuthaneamide]",Preventive index,[5]; 5 ppm active ingredient,4 (Preventive value 85 to 94%)
"O=C1CCc2cccc3c2N1CC3 [Compound 22, 1,2,5,6-tetrahydropyrrolo(3,2,1-i,j)quinolin-4-one]",Preventive index,[3]; 10 g/10a active ingredient,4 (Preventive value 85 to 94%)
"C=CCOC1=NS(=O)(=O)c2ccccc21 [Compound 23, 3-allyloxy-1,2-benzoisothiazole-1,1-dioxide]",Preventive index,[3]; 50 g/10a active ingredient,3 (Preventive value 60 to 84%)
"CSC(=O)c1cccc2nnsc12 [Compound 24, S-methyl-benzo(1,2,3)-thiadiazole-7-carbothiolate]",Preventive index,[3]; 50 g/10a active ingredient,3 (Preventive value 60 to 84%)
"CC(Oc1ccc(Cl)cc1Cl)C(=O)NC(C)(C#N)C(C)C (stereo not shown) [Compound A, N-(1-cyano-1,2-dimethylpropyl)-2-(2,4-dichlorophenoxy)propanamide]",Preventive index,[3]; 10 g/10a active ingredient,3 (Preventive value 60 to 84%)
same,Preventive index,[6]; 200 ppm active ingredient,0
same,Preventive index,[1]; 200 ppm active ingredient,0
same,Preventive index,[2]; 200 g/10a active ingredient,0
